The values below come from ChEMBL document CHEMBL1201862, “PubChem BioAssay data set” (2004).

Activity calls are given as the source filed them. Cut-off read from the data, not from the text of the source, for most assays here: actives have a measured EC50 and inactives only a lower limit. Some results are limits rather than exact numbers.

Test [1] addresses FAD-linked sulfhydryl oxidase ALR (Homo sapiens, UniProt P55789). Briefly: ALR-catalysed DTT oxidation blockers – biochemical, H2O2 detection, luminescence, cherry-pick, dose response (AID 493248).
The nature of test [2]: cells. The class given is functional.
The nature of test [3]: Trypanosoma cruzi growth suppression in host cells – NIH3T3 host cells, beta-gal luminescence, confirmation (AID 2044).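 Note: intracellular parasites grown in NIH/3T3 mouse fibroblasts as host cells; luminescent beta-galactosidase reporter signal from transgenic T. cruzi replicating inside host cells; inhibitors lower the luminescence signal.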 The class given is functional, cell-based.
Test [4] can be described thus: NIH3T3 cell viability loss – ATP luminescence, mouse fibroblasts, counter-screen, dose response (AID 2010).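 Note: cells exposed to compound for about 90 hours before reading.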 The class given is functional, cell-based.
Test [5] can be described thus: viability of uninfected HEp-2 cells – cell-based, HTS, cytotoxicity control for RSV inhibitor project, dose response (AID 2410). As to conditions: human respiratory syncytial virus. The class given is functional.
In test [6] the target is T1, Heat shock factor protein 1 (Mus musculus, UniProt P38532).
T1 sequence (P38532 whole entry): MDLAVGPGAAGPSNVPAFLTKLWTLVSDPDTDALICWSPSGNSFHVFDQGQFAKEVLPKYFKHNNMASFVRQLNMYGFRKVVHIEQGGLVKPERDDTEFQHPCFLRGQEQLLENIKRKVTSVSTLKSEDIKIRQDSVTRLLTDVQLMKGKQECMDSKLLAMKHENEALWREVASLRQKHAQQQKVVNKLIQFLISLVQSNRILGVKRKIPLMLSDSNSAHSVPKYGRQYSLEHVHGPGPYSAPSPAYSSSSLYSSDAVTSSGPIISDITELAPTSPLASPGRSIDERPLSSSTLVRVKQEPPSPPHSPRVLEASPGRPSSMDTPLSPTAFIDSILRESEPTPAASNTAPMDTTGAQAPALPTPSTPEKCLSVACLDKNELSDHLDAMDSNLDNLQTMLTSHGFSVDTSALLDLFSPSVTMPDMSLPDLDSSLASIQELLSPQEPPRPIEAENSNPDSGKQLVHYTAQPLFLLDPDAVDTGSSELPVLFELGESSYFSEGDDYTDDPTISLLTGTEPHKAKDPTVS
Briefly: enhancement of HSF1-driven luciferase signal – cell-based, NIH3T3, luminescence, dose retest, confirmation (AID 435004).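 Note: stress induced by proteasome inhibitor MG132 added 30 min after compound; luciferase reporter driven by HSF1 response element in NIH3T3 cells; actives raise luminescence as potentiators of the MG132 stress response.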 The class given is functional.

Test [7] can be described thus: DRD fibroblast viability loss – cell-based, non-viral oncogenic, luminescence, dose response (AID 1934). The class given is functional. The settings on record: Homo sapiens.
Test [8] has as its system BJ. Briefly: BJ-TERT-LT-ST fibroblast viability loss – cell-based, RAS-independent, luminescence, dose response (AID 1935).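 Note: BJ fibroblasts immortalized with TERT plus LT and ST oncogenes.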 The settings on record: Homo sapiens. The class given is functional.
Test [9] deals with BJ. Kind of test: cells. The class given is functional, cell-based. The settings on record: Homo sapiens.
Test [10] has as its system BJ. Briefly: BJ-TERT fibroblast viability loss – cell-based, RAS-independent, luminescence, dose response (AID 1933). The class given is functional. As to conditions: Homo sapiens.
Test [11] can be described thus: Luminescence Cell-Based Dose Confirmation HTS to Identify Inhibitors of Platelet Dense Granule Release. [Related pubchem assays: 1663 (Primary HTS), 1678 (Summary of Project)]. The class given is functional.
In test [12] the target is Luciferin 4-monooxygenase (Photinus pyralis, UniProt P08659). Briefly: inhibition of purified Photinus pyralis luciferase – biochemical, luminescence, dose response (AID 1891).
Sequence of Luciferin 4-monooxygenase (P08659 whole entry): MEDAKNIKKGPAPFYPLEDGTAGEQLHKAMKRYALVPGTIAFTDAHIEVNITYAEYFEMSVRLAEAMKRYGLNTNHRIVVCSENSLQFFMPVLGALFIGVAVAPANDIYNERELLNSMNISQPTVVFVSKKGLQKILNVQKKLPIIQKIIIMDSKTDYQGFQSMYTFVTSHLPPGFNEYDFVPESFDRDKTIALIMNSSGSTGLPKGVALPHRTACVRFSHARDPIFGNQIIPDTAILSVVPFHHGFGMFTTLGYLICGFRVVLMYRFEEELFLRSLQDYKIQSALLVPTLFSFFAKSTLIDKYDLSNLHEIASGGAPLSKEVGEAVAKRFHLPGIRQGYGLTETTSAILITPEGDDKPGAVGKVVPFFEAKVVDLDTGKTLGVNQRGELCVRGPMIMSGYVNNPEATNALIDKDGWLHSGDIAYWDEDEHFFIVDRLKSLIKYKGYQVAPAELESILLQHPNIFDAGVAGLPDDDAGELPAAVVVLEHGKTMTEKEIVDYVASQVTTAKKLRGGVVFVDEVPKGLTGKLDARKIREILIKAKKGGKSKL
The nature of test [13]: cells. The class given is functional, cell-based.
Test [14] is described as follows: cells. The class given is functional, cell-based. This is another data set of the same source.
A further test addresses Cytochrome P450 2C9 (Homo sapiens, UniProt P11712).
In test [15] the target is T1, Heat shock factor protein 1. Kind of test: decrease of HSF1-responsive luciferase luminescence – cell-based, NIH3T3, dose retest, confirmation (AID 2382).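 Note: NIH3T3 fibroblasts with HSF1-driven luciferase reporter stressed by proteasome inhibitor MG132; luminescence from HSF1-driven luciferase expression after 8 hours of MG132 stress.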 The class given is functional.
The nature of test [16]: Luminescence Cell-Based Dose Response HTS to Identify Inhibitors of 5'UTR Stem-Loop Driven Prion Protein mRNA Translation in H4 Neuroglioblastoma Cells. [Related pubchem assays: 1827 (Project Summary), 1813 (Primary HTS)]. The class given is functional.
Test [17] is described as follows: alpha-synuclein stem-loop luciferase translation blockers – H4 neuroglioma cells, luminescence, confirmation (AID 1988). The class given is functional, cell-based.
The nature of test [18]: luciferase reporter signal suppression in cells – H4 neuroglioma cells, luminescence, dose response (AID 1990). The class given is functional, cell-based.
The subject of another test is INS1. Briefly: INS-1E survival protection against cytokine death – cell-based, luminescence, retest, dose response (AID 449756).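 Note: cell death triggered by IL-1 beta plus TNF-alpha plus IFN-gamma mixture; protective hits raise ATP signal compared with cytokine alone wells.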 The class given is functional. The settings on record: Rattus norvegicus.
A short description of test [19]: HIV-1 AD8 envelope cell-cell fusion blockers – cherry-pick, dose response (AID 652062).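 Note: luciferase signal from cell-cell fusion driven by HIV-1 clade B AD8 Env; potency is for inhibitors of fusion seen as a drop in luminescence.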 The class given is functional, cell-based.
Test [20] can be described thus: blockers of HIV-1 ZM109 envelope-driven cell-cell fusion – HeLa effector, CEM target cells, luciferase, cherry-pick, dose response (AID 652058).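 Note: luciferase signal from HIV-1 Env mediated cell-cell fusion of effector and target cells.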 The class given is functional, cell-based.
In a further test the target is Paired box protein Pax-8 (Homo sapiens, UniProt Q06710). Kind of test: PAX8 transcriptional activity inhibition in RMG-I – RMG-I cells, luciferase, cherry-pick, dose response (AID 687027).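 Note: luciferase reporter driven by Pax8 target thyroperoxidase promoter measured by SteadyGlo luminescence.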 The class given is functional, cell-based.
Sequence of Paired box protein Pax-8 (Q06710 whole entry, the tested form may be a part): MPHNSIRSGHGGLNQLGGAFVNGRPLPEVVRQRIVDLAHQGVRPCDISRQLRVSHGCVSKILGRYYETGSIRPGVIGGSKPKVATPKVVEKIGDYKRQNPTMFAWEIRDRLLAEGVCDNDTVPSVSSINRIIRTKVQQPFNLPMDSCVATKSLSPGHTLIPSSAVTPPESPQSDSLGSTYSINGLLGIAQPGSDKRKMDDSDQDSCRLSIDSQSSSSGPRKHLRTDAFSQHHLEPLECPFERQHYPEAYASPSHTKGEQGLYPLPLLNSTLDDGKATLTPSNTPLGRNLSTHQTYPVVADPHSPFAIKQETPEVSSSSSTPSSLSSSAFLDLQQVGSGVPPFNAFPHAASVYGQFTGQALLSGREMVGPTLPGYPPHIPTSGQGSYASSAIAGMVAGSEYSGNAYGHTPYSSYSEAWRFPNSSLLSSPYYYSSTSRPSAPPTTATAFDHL
Test [21] in a line: blockers of HIV-1 envelope-mediated cell-cell fusion – cherry-pick, dose response (AID 652057). The class given is functional, cell-based.
The target of a further test is T2, Cytochrome P450 1A2 (Homo sapiens, UniProt P05177).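 Note: PubChem cytochrome P450 panel assay, CYP1A2 panel member.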
T2 sequence (P05177 whole entry): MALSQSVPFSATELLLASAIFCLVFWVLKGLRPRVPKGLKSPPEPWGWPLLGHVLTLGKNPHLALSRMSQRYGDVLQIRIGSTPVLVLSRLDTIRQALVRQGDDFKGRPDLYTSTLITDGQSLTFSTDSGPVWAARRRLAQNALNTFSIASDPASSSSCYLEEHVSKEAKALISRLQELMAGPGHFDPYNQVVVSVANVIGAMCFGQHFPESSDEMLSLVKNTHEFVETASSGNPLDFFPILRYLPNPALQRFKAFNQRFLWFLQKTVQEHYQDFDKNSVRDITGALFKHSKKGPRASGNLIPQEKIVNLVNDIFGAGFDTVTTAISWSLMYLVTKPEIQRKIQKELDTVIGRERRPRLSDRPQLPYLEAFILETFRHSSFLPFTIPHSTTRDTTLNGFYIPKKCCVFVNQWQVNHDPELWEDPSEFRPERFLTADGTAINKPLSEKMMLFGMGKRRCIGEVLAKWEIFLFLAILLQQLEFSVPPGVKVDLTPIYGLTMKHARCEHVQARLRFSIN

Sequence of FAD-linked sulfhydryl oxidase ALR (P55789 whole entry): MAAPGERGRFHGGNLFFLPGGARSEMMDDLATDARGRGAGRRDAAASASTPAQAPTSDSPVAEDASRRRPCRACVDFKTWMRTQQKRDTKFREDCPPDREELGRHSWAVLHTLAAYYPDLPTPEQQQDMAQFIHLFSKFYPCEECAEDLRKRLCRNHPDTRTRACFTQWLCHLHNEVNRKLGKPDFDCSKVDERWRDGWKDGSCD
Sequence of Cytochrome P450 2C9 (P11712 whole entry): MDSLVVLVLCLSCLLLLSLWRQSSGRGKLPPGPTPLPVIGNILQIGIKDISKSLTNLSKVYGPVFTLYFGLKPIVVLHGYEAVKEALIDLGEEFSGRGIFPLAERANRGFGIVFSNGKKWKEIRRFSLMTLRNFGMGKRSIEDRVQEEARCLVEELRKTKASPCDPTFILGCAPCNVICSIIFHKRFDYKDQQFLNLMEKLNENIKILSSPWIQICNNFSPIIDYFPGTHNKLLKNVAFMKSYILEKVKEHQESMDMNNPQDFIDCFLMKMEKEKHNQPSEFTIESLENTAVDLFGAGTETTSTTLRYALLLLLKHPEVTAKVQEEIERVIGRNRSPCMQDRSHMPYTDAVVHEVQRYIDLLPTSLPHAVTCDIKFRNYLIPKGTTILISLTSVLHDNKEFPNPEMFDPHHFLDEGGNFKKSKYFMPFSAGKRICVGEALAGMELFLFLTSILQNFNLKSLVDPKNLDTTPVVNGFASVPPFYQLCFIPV

For the molecule `C[C@H](N)CN1CCc2ccc(Br)cc21`, the AC50 in [1] was 0.84 µM (active). For the molecule `Cc1ccc(OCC(=O)OCc2c(C)noc2C)cc1C`, the IC50 in “cells [2]” was 22.7 µM (active). Consider `CC(C)(C)NCC1(CO)SC(N)=NC1=O` (centres undefined), for which the EC50 in test [3] was 3.82 µM (active); in test [4], > 30 µM (not active). Moreover, the IC50 in “cells [2]” is 16.4 µM (active). As to `Cc1ccc(C(=O)Nc2nc(C(C)(C)C)cs2)s1`, the CC50 in test [5] was 3.25 µM (active). For the molecule `CCCN(CCC)C(S)=NC1CC2C=CC1C2` (centres undefined), in [6], the EC50 is > 260 µM (inactive). In the case of `O=C(Oc1ccccc1Cl)c1ccc2c(=O)n3c(nc2c1)CCC3`, in “cells [2]”, the IC50 was 5.48 µM (active). For `O=C(CSc1nnc(-c2c[nH]c3ccccc23)n1-c1ccc(F)cc1)NCc1ccco1`, the EC50 in [6] was 40.4 µM (active). Turning to `COc1ccc(NC(=O)C(=O)NCCC2CCCCN2S(=O)(=O)c2ccccc2)cc1` (centres undefined), the EC50 is 13.5 µM (inconclusive) in [7], 23.4 µM (active) with BJ [8], 19.8 µM (active) with BJ [9] and 22.8 µM (active) in the test with BJ [10]. As for `Nc1cccc(C(=O)Nc2ccc3[nH]c(-c4cccnc4)nc3c2)c1`, the AC50 in [1] is 1.07 µM (active). `Cc1nnc(N2CCC(C(=O)N3CCCCCC3)CC2)c2nn(-c3ccc(Cl)cc3)c(C)c12`: the CC50 in [5] was 21.9 µM (active). As to `CC(=O)N1c2ccc(S(=O)(=O)N3CCCCC3)cc2CC1C(=O)Nc1ccccc1C(F)(F)F` (centres undefined), the EC50 in [11] and in [12] was > 112 µM (not active) in each case. As for `CCOC(=O)CC(=O)CSCC(=O)Nc1ccc(C)cc1`, the EC50 in test [6] is > 260 µM (inactive). `COc1ccccc1N(CC(=O)NC1CCCCC1)S(C)(=O)=O`: the EC50 in the test “cells [13]” and in the test “cells [14]” was > 350 µM (not active) throughout. As for `Cc1ccccc1CSc1nsc(N)n1`, the EC50 in test [6] was > 260 µM (inactive). The AC50 at Cytochrome P450 2C9 is 2 µM (inconclusive).

As to `Cc1sc2ncnc(SCC(=O)N3CCCC3)c2c1C`, the EC50 in test [11] and in test [12] was > 112 µM (not active) in each case. For the molecule `O=C1C(=O)c2ccccc2C(O)=C1c1cccc([N+](=O)[O-])c1`, in test [5], the CC50 was 14.2 µM (active). Moreover, the results for the EC50 in the test “cells [13]” and in “cells [14]” were 56.5 µM (active) and > 350 µM (not active), respectively. In the case of `CCOC(=O)c1cc2nc(-c3ccco3)cc(C(F)(F)F)n2n1`, the EC50 in [15] was > 195 µM (not active); in test [11], > 112 µM (not active); in [12] it was > 112 µM (not active). For the molecule `CCN(CC)c1ccc(CNCCc2ccccc2F)cc1`, the AC50 in [1] was 1.36 µM (active). As to `O=C(CN1CCN(S(=O)(=O)c2ccc3ccccc3c2)CC1)N1CCc2ccccc2C1`, the CC50 in [5] is 25.3 µM (active). Further, the values for the EC50 in test [16], in test [17] and in test [18] were 23 µM (active), > 120 µM (not active) and 14.4 µM (active), respectively. As to `COc1cccc(-c2cn3nc(C)c(C)nc3n2)c1`, the EC50 is 6.72 µM (active) in test [11] and 19.7 µM (active) in test [12].

Consider `CCOC(=O)c1c(C)oc2ccc(NS(=O)(=O)c3ccc4c5c(cccc35)C(=O)N4)cc12`, for which the CC50 in [5] was 7.08 µM (active). With `O=C(Nc1cccc(Cl)c1)Nc1ccccc1C(=O)O`, the EC50 is 11.4 µM (active) in test [11] and 0.654 µM (active) in test [12]. Regarding `O=C(CSC1CS(=O)(=O)c2cc([N+](=O)[O-])ccc21)NNC(=O)c1ccc(Cl)cc1` (centres undefined), in test [6], the EC50 is > 260 µM (inactive). As to `CCOC(=O)COc1c(-c2ccc(OC)cc2)oc2ccccc2c1=O`, the IC50 in the test “cells [2]” was 5.55 µM (active). Take `O=C(O)c1ccccc1OC(C(=O)Nc1cc(Cl)cc(Cl)c1)c1ccccc1` (centres undefined): the EC50 in test [6] was > 260 µM (inactive). As for `CCOC(=O)c1c(S(=O)(=O)NCc2ccc(C)o2)c(C)n(C)c1C`, the EC50 in “cells [13]” and in “cells [14]” was > 350 µM (not active) each time. As to `CCCn1cnc2cc(NCc3ccccc3O)ccc21`, in test [1], the AC50 was 3.92 µM (active).

Turning to `CCc1ccc(-n2c(S)nnc2Cc2ccccc2)cc1`, the EC50 in test [11] and in test [12] was > 112 µM (not active) each time.

For `Cc1cccc2nc(CSc3nc4nncc-4c(O)n3-c3cccc(Cl)c3)cc(=O)n12`, the AC50 in the test on INS1 is 8.23 µM (active). Regarding `CN(CC(=O)Nc1ccccc1Cl)CC(=O)Nc1c(F)cccc1F`, the EC50 in test [6] was > 260 µM (inactive). Regarding `O=C(NCC1COc2ccccc2O1)c1cccc(S(=O)(=O)NCc2ccccc2)c1` (centres undefined), the concentration at half-maximal activity (AC50) with INS1 was 8.07 µM (active). For `CCn1c(-c2cc(Br)ccc2O)n[nH]c1=S`, the AC50 in test [1] is 4.27 µM (active). As to `NC(=O)c1cc2cc(Br)ccc2o/c1=N\Cc1ccccc1`, the EC50 in test [6] was > 260 µM (inactive). Consider `C[C@H](CO)N1C[C@H](C)[C@@H](CN(C)C(=O)NC2CCCCC2)Oc2c(cccc2N(C)C)C1=O`, for which the figures for the AC50 in test [19] and in test [20] were 0.558 µM (active) and 36.3 µM (active), respectively.

For `COc1ccc(S(=O)(=O)Nc2ccc3c(c2)C(=O)N([C@H](C)CO)C[C@H](C)[C@@H](CN(C)Cc2ccc(C(F)(F)F)cc2)OCCCC[C@H](C)O3)cc1`, the AC50 at Paired box protein Pax-8 was 18.9 µM (active). For the molecule `CN1C(=O)c2cc(NC(=O)c3cscn3)ccc2OC[C@@H]2O[C@H](CC(=O)NCc3ccc(Cl)c(Cl)c3)CC[C@H]21`, the AC50 is 21 µM (active) in test [21], 40.6 µM (active) in [19] and 6.62 µM (active) in test [20]. `C[C@H]1CN([C@@H](C)CO)C(=O)Cc2cc(NC(=O)Nc3cccc4ccccc34)ccc2O[C@H]1CN(C)S(=O)(=O)c1ccc(F)cc1`: the AC50 in test [21] is 3.46 µM (active); in test [19] it was 6.07 µM (active); in [20], 7.77 µM (active).

`CC/C(C)=N/Nc1nc(-c2cc3cccc(OC)c3oc2=O)cs1`: in test [1], the AC50 is 0.091 µM (active). Consider `CN(C)c1ccc(/C=N/Nc2nncc3ccccc23)cc1`, for which the EC50 was 2.37 µM (active) in [11] and 1.11 µM (active) in test [12]. Turning to `CCO/C(O)=C1\C(C)=Nc2ncnn2C1c1ccc2c(c1)OCO2` (centres undefined), in test [6], the EC50 is > 260 µM (inactive). As for `CNc1c2c(nn1C)CCCC2` [TETRYDAMINE], the AC50 at Cytochrome P450 1A2 is 39.8 µM (inconclusive). In addition, the concentration giving a half-maximal response (EC50) in the test “cells [13]” and in the test “cells [14]” was > 350 µM (not active) in each case.
